Columns and labels:
[1] = tested on: co‐culture of RF33.70 cells and the activated BMDCs; assay: IL-2 secretion from co-culture of pretreated BMDCs and RF33.70 cells (ELISA); format: cell-based, mouse; details: BMDCs pretreated 16 h at 1 µM, co-culture with RF33.70 16 h, n = 3
Experimental: The differentiation of BMDC from bone marrow cells was performed as previously described.^[ [48] ^] 2 × 10^4 cells/well BMDCs were suspended in 200 µL medium without adding IL‐2 and IL‐4. BMDCs were treated with LPn[OVA8/CpG/LLP2A] containing 1 or 2 µM of OVA8 for 16 h. Each group contains approximately equivalent concentrations of CpG and OVA8 based on the data in Table S1 (Supporting Information). After that, the cells were centrifuged at 320 g for 5 min to remove the uninternalized drugs. Then the BMDC cells were resuspended in RPMI medium and were co‐incubated with 10 × 10^4 cells/well of RF33.70 cells for another 16 h. After that, the medium supernatant was collected. The IL‐2 concentration was measured by IL‐2 Mouse ELISA Kit (Thermo Fisher).
For the blocking experiment, BMDC cells were pre‐incubated with an excess of LLP2A‐P4 (100 µM) for 1 h. Then the cells were washed three times with PBS, before the treatment of 1 µM LP11[OVA8/CpG/LLP2A] for 16 h. After that, the cells were washed three times with PBS to get rid of the uninternalized drugs, followed by co‐culturing with RF33.70 cells. The IL‐2 level was quantified by ELISA as mentioned above.

[2] = Zeta potential in H2O (Malvern DLS zetasizer); format: physicochemical; details: OVA8 or CpG 5 µM, mean ± SD, n = 3
Text: (§1) The size and zeta potential of LPn[OVA8/CpG/LLP2A] in H2O were detected by Malvern DLS zetasizer with the equivalent concentration of OVA8 or CpG at 5 µΜ. The morphology of LPn[OVA8/CpG/LLP2A] was visualized by transmission electron microscope (TEM, 80 kV FEI Talos 120C).

[3] = Hydrodynamic size by DLS (Malvern zetasizer) in water; format: physicochemical; details: in H2O, OVA8 or CpG 5 µM, mean ± SD, n = 3
Experimental: The size and the dispersity of each of the three nanoconstructs in water were determined by Malvern zetasizer. […] (195.1 nm ± 61.1). […] To better understand how PVN nanoparticles are formed, we used LP11[OVA8/CpG/LLP2A] as an example and analyzed the hydrodynamic size, morphology, and spatial distribution of its components in various LP11‐based incomplete PVNs. It is well‐known that Class A CpG ODNs can self‐assemble into nanosized multimers because of their palindromic and poly‐guanine (G) tails.^[ [19], [21], [22] ^] […] To determine whether G‐quadruplex structures formed in the CpG ODN nanoclusters, we used nuclear magnetic resonance (NMR) to detect the CpG structure. […] Furthermore, hybridization with CpG, P3‐OVA8, and LLP2A‐P4 payloads increased the size of the final nanoparticle to 132.6 ± 71.7 nm.
as §1

Row | Substance | IL‐2 production [1] | zeta potential [2] [mV] | average hydrodynamic size [3] [nm]
1 | CCCCGTATGCA [LP11] | barely induced | ~0 | –
2 | CpG: Class A CpG oligonucleotide, toll‐like receptor 9 agonist; 5′ ggGGTCAACGTTGAgggggg 3′, lowercase phosphorothioate (DNA GGGGTCAACGTTGAGGGGGG; DNA, linkages s2 o12 s5 (s phosphorothioate, o phosphodiester), methylation of C not given here; further chemistry not fully specified) | barely induced | −24.3 ± 13.3 | 62.3 ± 14.2
3 | TAC‐K‐SIINFEKL [P3‐OVA8] | – | ~0 | –

— article PMC12723328, “Designing Programmable Peptide Nucleic Acid‐based Nanovaccines for Anticancer Immune Activation” (Small (Weinheim an Der Bergstrasse, Germany), 2025)
